# Laboratory results from patent US7902238B2, “2-aminooxazolines as TAAR1 ligands” (Hoffmann-La Roche Inc., priority 2007, dated 2011).
# Experiments:
# rat TAAR1 = rat TAAR1 (Rattus norvegicus, UniProt Q923Y9); assay: Radioligand binding on membranes of HEK293 cells stably expressing rat TAAR1
# mouse TAAR1 = mouse TAAR1 (Mus musculus, UniProt Q923Y8); assay: Radioligand binding on membranes of HEK293 cells stably expressing mouse TAAR1
# Chain of mouse TAAR1 (Q923Y8 whole entry): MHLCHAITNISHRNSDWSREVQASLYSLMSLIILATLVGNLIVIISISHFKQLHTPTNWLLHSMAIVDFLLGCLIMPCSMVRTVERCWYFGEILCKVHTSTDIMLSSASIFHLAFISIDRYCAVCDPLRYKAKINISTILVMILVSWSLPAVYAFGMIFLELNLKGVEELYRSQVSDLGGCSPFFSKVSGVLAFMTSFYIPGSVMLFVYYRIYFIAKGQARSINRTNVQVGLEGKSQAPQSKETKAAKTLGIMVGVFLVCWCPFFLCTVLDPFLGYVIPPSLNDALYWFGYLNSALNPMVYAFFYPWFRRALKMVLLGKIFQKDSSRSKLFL
# Chain of rat TAAR1 (Q923Y9 whole entry): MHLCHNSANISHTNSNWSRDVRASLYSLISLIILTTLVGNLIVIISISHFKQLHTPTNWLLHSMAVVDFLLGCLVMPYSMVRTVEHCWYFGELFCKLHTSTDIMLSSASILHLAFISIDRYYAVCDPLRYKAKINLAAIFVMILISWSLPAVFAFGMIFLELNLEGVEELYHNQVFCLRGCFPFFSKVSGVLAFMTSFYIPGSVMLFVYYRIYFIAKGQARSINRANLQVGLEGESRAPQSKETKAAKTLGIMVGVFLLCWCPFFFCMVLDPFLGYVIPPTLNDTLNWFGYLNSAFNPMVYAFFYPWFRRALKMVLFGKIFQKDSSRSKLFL
SMILES,Ki (rat TAAR1) [nM],Ki (mouse TAAR1) [nM]
"CCN(C[C@@H]1COC(N)=N1)c1ccccc1 [Example 1, (R)-4-[(Ethyl-phenyl-amino)-methyl]-4,5-dihydro-oxazol-2-ylamine]",1.9,0.9
"CCN(C[C@H]1COC(N)=N1)c1ccccc1 [Example 3, (S)-4-[(Ethyl-phenyl-amino)-methyl]-4,5-dihydro-oxazol-2-ylamine]",1,1
"CN(C[C@H]1COC(N)=N1)c1ccc(Cl)c(Cl)c1 [Example 7, (S)-4-{[(3,4-Dichloro-phenyl)-methyl-amino]-methyl}-4,5-dihydro-oxazol-2-ylamine]",0.3,1.4
"CCN(C[C@H]1COC(N)=N1)c1ccc(Cl)cc1 [Example 11, (S)-4-{[(4-Chloro-phenyl)-ethyl-amino]-methyl}-4,5-dihydro-oxazol-2-ylamine]",0.9,3.5
"CC(C)N(C[C@H]1COC(N)=N1)c1ccc(Cl)c(Cl)c1 [Example 15, (S)-4-{[(3,4-Dichloro-phenyl)-isopropyl-amino]-methyl}-4,5-dihydro-oxazol-2-ylamine]",0.8,22.4
"COc1cc(N(C)C[C@H]2COC(N)=N2)ccc1Cl [Example 27, (S)-4-{[(4-Chloro-3-methoxy-phenyl)-methyl-amino]-methyl}-4,5-dihydro-oxazol-2-ylamine]",1.6,7.3
"CCN(C[C@H]1COC(N)=N1)c1ccc(Cl)c(OC)c1 [Example 28, (S)-4-{[(4-Chloro-3-methoxy-phenyl)-ethyl-amino]-methyl}-4,5-dihydro-oxazol-2-ylamine]",0.6,2.3
"CN(C[C@H]1COC(N)=N1)c1ccccc1 [Example 30, (S)-4-[(Methyl-phenyl-amino)-methyl]-4,5-dihydro-oxazol-2-ylamine]",1.7,16.3
"CN(C[C@H]1COC(N)=N1)c1ccc(Br)cc1 [Example 31, (S)-4-{[(4-Bromo-phenyl)-methyl-amino]-methyl}-4,5-dihydro-oxazol-2-ylamine]",1.9,1.3
"CCN(C[C@H]1COC(N)=N1)c1ccc(Br)cc1 [Example 32, (S)-4-{[(4-Bromo-phenyl)-ethyl-amino]-methyl}-4,5-dihydro-oxazol-2-ylamine]",0.6,2.8
"CCN(C[C@H]1COC(N)=N1)c1ccc(Cl)c(Cl)c1 [Example 33, (S)-4-{[(3,4-Dichloro-phenyl)-ethyl-amino]-methyl}-4,5-dihydro-oxazol-2-ylamine]",0.2,2.2
"CN(C[C@H]1COC(N)=N1)c1cccc(Br)c1 [Example 34, (S)-4-{[(3-Bromo-phenyl)-methyl-amino]-methyl}-4,5-dihydro-oxazol-2-ylamine]",4.7,1.2
"CCN(C[C@H]1COC(N)=N1)c1cccc(Br)c1 [Example 37, (S)-4-{[(3-Bromo-phenyl)-ethyl-amino]-methyl}-4,5-dihydro-oxazol-2-ylamine]",1.8,9.7
"COc1cc(N(C)C[C@H]2COC(N)=N2)ccc1F [Example 40, (S)-4-{[(4-Fluoro-3-methoxy-phenyl)-methyl-amino]-methyl}-4,5-dihydro-oxazol-2-ylamine]",2,1.1
"COc1cc(N(Cc2ccccc2)C[C@H]2COC(N)=N2)ccc1F [Example 42, (S)-4-{[Benzyl-(4-fluoro-3-methoxy-phenyl)-amino]-methyl}-4,5-dihydro-oxazol-2-ylamine]",1.1,26.4
"NC1=N[C@@H](CN(Cc2ccccc2)c2ccc(F)cc2)CO1 [Example 53, (S)-4-{[Benzyl-(4-fluoro-phenyl)-amino]-methyl}-4,5-dihydro-oxazol-2-ylamine]",0.9,18.7
"NC1=N[C@@H](CN(Cc2ccccc2)c2ccc(Cl)cc2)CO1 [Example 55, (S)-4-[{Benzyl-(4-chloro-phenyl)-amino]-methyl}-4,5-dihydro-oxazol-2-ylamine]",0.6,28.8
"CCN(C[C@H]1COC(N)=N1)c1cccc(C)c1 [Example 65, (S)-4-[(Ethyl-m-tolyl-amino)-methyl]-4,5-dihydro-oxazol-2-ylamine]",2.7,1.9
"CN(C[C@H]1COC(N)=N1)c1ccc2ccccc2c1 [Example 77, (S)-4-[(Methyl-naphthalen-2-yl-amino)-methyl]-4,5-dihydro-oxazol-2-ylamine]",,0.4
"CCN(C[C@H]1COC(N)=N1)c1cccc(Cl)c1 [Example 83, (S)-4-{[(3-Chloro-phenyl)-ethyl-amino]-methyl}-4,5-dihydro-oxazol-2-ylamine]",1,
"NC1=N[C@@H](CNc2cccc(Cl)c2)CO1 [Example 87, (S)-4-[(3-Chloro-phenylamino)-methyl]-4,5-dihydro-oxazol-2-ylamine]",7.3,
"CCc1cccc(N(CC)C[C@H]2COC(N)=N2)c1 [Example 92, (S)-4-{[Ethyl-(3-ethyl-phenyl)-amino]-methyl}-4,5-dihydro-oxazol-2-ylamine]",37000,

SMILES,Ki (rat TAAR1) [nM],Ki (mouse TAAR1) [nM]
"CCc1ccc(N(CC)C[C@H]2COC(N)=N2)cc1 [Example 94, (S)-4-{[Ethyl-(4-ethyl-phenyl)-amino]-methyl}-4,5-dihydro-oxazol-2-ylamine]",51000,
"CCN(C[C@H]1COC(N)=N1)c1ccc(Cl)cc1F [Example 95, (S)-4-{[(4-Chloro-2-fluoro-phenyl)-ethyl-amino]-methyl}-4,5-dihydro-oxazol-2-ylamine]",1.5,
"CCN(C[C@H]1COC(N)=N1)c1ccc2c(c1)CCC2 [Example 99, (S)-4-[(Ethyl-indan-5-yl-amino)-methyl]-4,5-dihydro-oxazol-2-ylamine]",3.2,6
"CN(C[C@H]1COC(N)=N1)c1ccc(Cl)cc1F [Example 100, (S)-4-{[(4-Chloro-2-fluoro-phenyl)-methyl-amino]-methyl}-4,5-dihydro-oxazol-2-ylamine]",3,2.7
"CN(C[C@H]1COC(N)=N1)c1cccc(-c2cnco2)c1 [Example 105, (S)-4-{[Methyl-(3-oxazol-5-yl-phenyl)-amino]-methyl}-4,5-dihydro-oxazol-2-ylamine]",63.5,3.8
"CCN(C[C@H]1COC(N)=N1)c1cccc(-c2cnco2)c1 [Example 106, (S)-4-{[Ethyl-(3-oxazol-5-yl-phenyl)-amino]-methyl}-4,5-dihydro-oxazol-2-ylamine]",18.8,4.1
"CCN(C[C@H]1COC(N)=N1)c1ccccc1F [Example 107, (S)-4-{[Ethyl-(2-fluoro-phenyl)-amino]-methyl}-4,5-dihydro-oxazol-2-ylamine]",14.9,3.9
"CCN(C[C@H]1COC(N)=N1)c1cc(F)cc(C(F)(F)F)c1 [Example 109, (S)-4-{[Ethyl-(3-fluoro-5-trifluoromethyl-phenyl)-amino]-methyl}-4,5-dihydro-oxazol-2-ylamine]",1.7,2.5
"CCN(C[C@H]1COC(N)=N1)c1ccccc1Cl [Example 111, (S)-4-{[(2-Chloro-phenyl)-ethyl-amino]-methyl}-4,5-dihydro-oxazol-2-ylamine]",58.7,6
"Cc1ccc(N(C)C[C@H]2COC(N)=N2)c(F)c1 [Example 113, (S)-4-{[(2-Fluoro-4-methyl-phenyl)-methyl-amino]-methyl}-4,5-dihydro-oxazol-2-ylamine]",6.2,2.8
"Cc1ccc(NC[C@H]2COC(N)=N2)c(F)c1 [Example 117, (S)-4-[(2-Fluoro-4-methyl-phenylamino)-methyl]-4,5-dihydro-oxazol-2-ylamine]",18.2,2.8
"NC1=N[C@@H](CNc2ccccc2Cl)CO1 [Example 119, (S)-4-[(2-Chloro-phenylamino)-methyl]-4,5-dihydro-oxazol-2-ylamine]",4.2,1.1
"CN(C[C@@H]1COC(N)=N1)c1ccc(Cl)cc1 [Example 125, (R)-4-{[(4-Chloro-phenyl)-methyl-amino]-methyl}-4,5-dihydro-oxazol-2-ylamine]",5.6,2.3
"CCN(C[C@@H]1COC(N)=N1)c1ccc(Cl)cc1 [Example 126, (R)-4-{[(4-Chloro-phenyl)-ethyl-amino]-methyl}-4,5-dihydro-oxazol-2-ylamine]",1.2,1.6
"NC1=N[C@@H](CNc2ccc(C(F)(F)F)c(F)c2)CO1 [Example 127, (S)-4-[(3-Fluoro-4-trifluoromethyl-phenylamino)-methyl]-4,5-dihydro-oxazol-2-ylamine]",15.7,4.6
"CN(C[C@@H]1COC(N)=N1)c1ccc(F)cc1 [Example 128, (R)-4-{[(4-Fluoro-phenyl)-methyl-amino]-methyl}-4,5-dihydro-oxazol-2-ylamine]",11.6,4.7
"CC(C)N(C[C@@H]1COC(N)=N1)c1ccc(Cl)cc1 [Example 129, (R)-4-{[(4-Chloro-phenyl)-isopropyl-amino]-methyl}-4,5-dihydro-oxazol-2-ylamine]",2.7,8.8
"NC1=N[C@@H](CNc2ccc(C(F)(F)F)cc2)CO1 [Example 132, (S)-4-[(4-Trifluoromethyl-phenylamino)-methyl]-4,5-dihydro-oxazol-2-ylamine]",24.8,4.7
"CCN(C[C@H]1COC(N)=N1)c1ccc(C(F)(F)F)cc1 [Example 133, (S)-4-{[Ethyl-(4-trifluoromethyl-phenyl)-amino]-methyl}-4,5-dihydro-oxazol-2-ylamine]",4.9,4.2
"CN(C[C@H]1COC(N)=N1)c1ccc(C(F)(F)F)cc1 [Example 134, (S)-4-{[Methyl-(4-trifluoromethyl-phenyl)-amino]-methyl}-4,5-dihydro-oxazol-2-ylamine]",3.6,5.7
"NC1=N[C@@H](CNc2cccc(Cl)n2)CO1 [Example 135, ((S)-2-Amino-4,5-dihydro-oxazol-4-ylmethyl)-(6-chloro-pyridin-2-yl)-amine]",48.9,8.7
